Values quoted from earlier work as cited in PMC5988656, “Phase I studies of AZD1208, a proviral integration Moloney virus kinase inhibitor in solid and haematological cancers” (British Journal of Cancer, 2018).

Assays:
[1] = system: refractory prostate cancer and relapsed/refractory non-Hodgkin lymphoma; design: method as in ClinicalTrials.gov, NCT00848601; details: ref ClinicalTrials.gov, NCT00848601; cited from earlier work
[2] = system: relapsed/refractory multiple myeloma (RRMM); details: in vivo; cited from earlier work

| SMILES | Outcome of clinical development [1] | DLT fatigue [2] [n] | DLT hypophosphatemia [2] [n] | DLT thrombocytopenia [2] [n] | DLT vasovagal syncope [2] [n] | DLTs [2] |
| --- | --- | --- | --- | --- | --- | --- |
| CN1CCC(CNc2ccc3ncc(-c4cccc(OC(F)(F)F)c4)n3n2)CC1 [SGI-1776] | discontinued because of QTc prolongation |  |  |  |  |  |
| C[C@@H]1C[C@H](N)C[C@H](c2ccncc2NC(=O)c2ccc(F)c(-c3c(F)cccc3F)n2)C1 [LGH447] |  | 2 | 1 | 4 | 1 | eight |
